In ChEMBL document CHEMBL1148640, “Biological evaluation, chelation, and molecular modeling studies of novel metal-chelating inhibitors of NF-kappaB-DNA binding: structure activity relationships” (J Med Chem, 2006):

The compounds below were run on Radical scavenging activity (assay: Inhibition of superoxide radical scavenging activity).
Format: functional

| IC50 | Structure (SMILES) |
| --- | --- |
| 88 µM | O=c1ccc2c(-c3ccccc3S(=O)(=O)O)c3ccc(O)c(O)c3oc-2c1O [PYROGALLOL RED] |
| 120 µM | O=C1C=C/C(=C(/c2ccc(O)c(O)c2)c2ccccc2S(=O)(=O)O)C=C1O [PYROCATECHOL VIOLET] |

The remaining lines, values behind:

| Structure (SMILES) | IC50 |
| --- | --- |
| CC1=C/C(=C(/c2cc(C)c(O)c(C(=O)O)c2)c2c(Cl)ccc(S(=O)(=O)O)c2Cl)C=C(C(=O)O)C1=O [CHROME AZUROL S] | > 250 µM |
| O=c1c(Br)cc2c(-c3ccccc3S(=O)(=O)O)c3cc(Br)c(O)c(O)c3oc-2c1O [BROMOPYROGALLOL RED] | 51.5 µM |
| CC1=C/C(=C(/c2cc(C)c(O)c(C(=O)O)c2)c2ccccc2S(=O)(=O)O)C=C(C(=O)O)C1=O [ERIOCHROME CYANINE R] | > 250 µM |
